Assay results as given in ChEMBL document CHEMBL3885881, “DrugMatrix”.

Species: Rattus norvegicus
Assay: DrugMatrix - Regimen: Daily Repeat
Type: toxicity, organism-based, Sprague-Dawley
Design: regimen Daily Repeat, gender Male, age 6-8 weeks
Conditions: in vivo, po, route oral GAVAGE, […]; for ABSOLUTE BASOPHIL / ABSOLUTE EOSINOPHIL / ABSOLUTE LYMPHOCYTE / ABSOLUTE MONOCYTE / ABSOLUTE SEGMENTED NEUTROPHIL / BASOPHIL / EOSINOPHIL / ERYTHROCYTE COUNT / HEMATOCRIT / HEMOGLOBIN / LEUKOCYTE COUNT / LYMPHOCYTE / MEAN CORPUSCULAR HEMOGLOBIN / MEAN CORPUSCULAR HEMOGLOBIN CONCENTRATION / MEAN CORPUSCULAR VOLUME / MONOCYTE / NEUTROPHIL / NUCLEATED RED BLOOD CELLS / PLATELET COUNT: tissue Blood; for ALANINE AMINOTRANSFERASE / ALBUMIN / ALKALINE PHOSPHATASE / ASPARTATE AMINOTRANSFERASE / BLOOD UREA NITROGEN / CARBON DIOXIDE / CHLORIDE / CHOLESTEROL / CREATINE PHOSPHOKINASE / CREATININE / GLUCOSE / LACTATE DEHYDROGENASE / LIPASE / PHOSPHORUS / POTASSIUM / SODIUM / TOTAL BILIRUBIN / TOTAL PROTEIN / URIC ACID: tissue Plasma
[1] = 0 mg/kg, 72 h, dose level Control, time 3 day
[2] = 0 mg/kg, 120 h, dose level Control, time 5 day
[3] = 1 mg/kg, 72 h, dose level Low, time 3 day

C[C@H]1O[C@@H](O[C@H]2[C@@H](O)C[C@H](O[C@H]3[C@@H](O)C[C@H](O[C@H]4CC[C@@]5(C)[C@H](CC[C@@H]6[C@@H]5CC[C@]5(C)[C@@H](C7=CC(=O)OC7)CC[C@]65O)C4)O[C@@H]3C)O[C@@H]2C)C[C@H](O)[C@@H]1O [DIGITOXIN]
ABSOLUTE BASOPHIL [1]: 0 CELLS/uL | ABSOLUTE EOSINOPHIL [1]: 13.67 CELLS/uL | ABSOLUTE LYMPHOCYTE [1]: 10069.5 CELLS/uL | ABSOLUTE MONOCYTE [1]: 50 CELLS/uL | ABSOLUTE SEGMENTED NEUTROPHIL [1]: 516.83 CELLS/uL | BASOPHIL [1]: 0% | EOSINOPHIL [1]: 0.17% | ERYTHROCYTE COUNT [1]: 5.44 x10E6/uL | HEMATOCRIT [1]: 33.88% | HEMOGLOBIN [1]: 13.23 G/DL | LEUKOCYTE COUNT [1]: 10.65 x10E3/uL | LYMPHOCYTE [1]: 94.67% | MEAN CORPUSCULAR HEMOGLOBIN [1]: 24.37 pg | MEAN CORPUSCULAR HEMOGLOBIN CONCENTRATION [1]: 39.05 G/DL | MEAN CORPUSCULAR VOLUME [1]: 62.38 fL | MONOCYTE [1]: 0.67% | NEUTROPHIL [1]: 4.5% | NUCLEATED RED BLOOD CELLS [1]: 0.33 /100WBC | PLATELET COUNT [1]: 414.5 x10E3/uL | ALANINE AMINOTRANSFERASE [1]: 72 u/L | ALBUMIN [1]: 3.75 G/DL | ALKALINE PHOSPHATASE [1]: 375 u/L | ASPARTATE AMINOTRANSFERASE [1]: 87.5 u/L | BLOOD UREA NITROGEN [1]: 14 mg/dL | CARBON DIOXIDE [1]: 27.5 mmol/L | CHLORIDE [1]: 95.83 MEQ/L | CHOLESTEROL [1]: 68.5 mg/dL | CREATINE PHOSPHOKINASE [1]: 284.33 u/L | CREATININE [1]: 0.16 mg/dL | GLUCOSE [1]: 156.67 mg/dL | LACTATE DEHYDROGENASE [1]: 101.83 u/L | LIPASE [1]: 9.67 u/L | PHOSPHORUS [1]: 10.33 mg/dL | POTASSIUM [1]: 5.22 MEQ/L | SODIUM [1]: 137.67 MEQ/L | TOTAL BILIRUBIN [1]: 0.13 mg/dL | TOTAL PROTEIN [1]: 5.43 G/DL | URIC ACID [1]: 0.8 mg/dL | ABSOLUTE BASOPHIL [2]: 0 CELLS/uL | ABSOLUTE EOSINOPHIL [2]: 20.67 CELLS/uL | ABSOLUTE LYMPHOCYTE [2]: 11518.33 CELLS/uL | ABSOLUTE MONOCYTE [2]: 47 CELLS/uL | ABSOLUTE SEGMENTED NEUTROPHIL [2]: 614 CELLS/uL | BASOPHIL [2]: 0% | EOSINOPHIL [2]: 0.17% | ERYTHROCYTE COUNT [2]: 5.61 x10E6/uL | HEMATOCRIT [2]: 34.25% | HEMOGLOBIN [2]: 13.38 G/DL | LEUKOCYTE COUNT [2]: 12.2 x10E3/uL | LYMPHOCYTE [2]: 94.33% | MEAN CORPUSCULAR HEMOGLOBIN [2]: 23.83 pg | MEAN CORPUSCULAR HEMOGLOBIN CONCENTRATION [2]: 39.08 G/DL | MEAN CORPUSCULAR VOLUME [2]: 61.03 fL | MONOCYTE [2]: 0.33% | NEUTROPHIL [2]: 5.17% | NUCLEATED RED BLOOD CELLS [2]: 0 /100WBC | PLATELET COUNT [2]: 941.83 x10E3/uL | ALANINE AMINOTRANSFERASE [2]: 68.83 u/L | ALBUMIN [2]: 4.12 G/DL | ALKALINE PHOSPHATASE [2]: 492.67 u/L | ASPARTATE AMINOTRANSFERASE [2]: 83.33 u/L | BLOOD UREA NITROGEN [2]: 14 mg/dL | CARBON DIOXIDE [2]: 37 mmol/L | CHLORIDE [2]: 98.67 MEQ/L | CHOLESTEROL [2]: 56.5 mg/dL | CREATINE PHOSPHOKINASE [2]: 167.33 u/L | CREATININE [2]: 0.17 mg/dL | GLUCOSE [2]: 157.5 mg/dL | LACTATE DEHYDROGENASE [2]: 104.83 u/L | LIPASE [2]: 10 u/L | PHOSPHORUS [2]: 10.43 mg/dL | POTASSIUM [2]: 5.46 MEQ/L | SODIUM [2]: 143.87 MEQ/L | TOTAL BILIRUBIN [2]: 0.17 mg/dL | TOTAL PROTEIN [2]: 5.72 G/DL | URIC ACID [2]: 0.85 mg/dL | ABSOLUTE BASOPHIL [3]: 0 CELLS/uL | ABSOLUTE EOSINOPHIL [3]: 39.67 CELLS/uL | ABSOLUTE LYMPHOCYTE [3]: 11912.33 CELLS/uL | ABSOLUTE MONOCYTE [3]: 73.33 CELLS/uL | ABSOLUTE SEGMENTED NEUTROPHIL [3]: 641.33 CELLS/uL | BASOPHIL [3]: 0% | EOSINOPHIL [3]: 0.33% | ERYTHROCYTE COUNT [3]: 5.7 x10E6/uL | HEMATOCRIT [3]: 35.6% | HEMOGLOBIN [3]: 13.77 G/DL | LEUKOCYTE COUNT [3]: 12.67 x10E3/uL | LYMPHOCYTE [3]: 93.67% | MEAN CORPUSCULAR HEMOGLOBIN [3]: 24.13 pg | MEAN CORPUSCULAR HEMOGLOBIN CONCENTRATION [3]: 38.7 G/DL | MEAN CORPUSCULAR VOLUME [3]: 62.33 fL | MONOCYTE [3]: 0.67% | NEUTROPHIL [3]: 5.33% | NUCLEATED RED BLOOD CELLS [3]: 0 /100WBC | PLATELET COUNT [3]: 661.33 x10E3/uL | ALANINE AMINOTRANSFERASE [3]: 72.67 u/L | ALBUMIN [3]: 3.77 G/DL | ALKALINE PHOSPHATASE [3]: 495.33 u/L | ASPARTATE AMINOTRANSFERASE [3]: 95.67 u/L | BLOOD UREA NITROGEN [3]: 12 mg/dL | CARBON DIOXIDE [3]: 25.67 mmol/L | CHLORIDE [3]: 96.33 MEQ/L | CHOLESTEROL [3]: 70.67 mg/dL | CREATINE PHOSPHOKINASE [3]: 398.33 u/L | CREATININE [3]: 0.17 mg/dL | GLUCOSE [3]: 146.67 mg/dL | LACTATE DEHYDROGENASE [3]: 188.67 u/L | LIPASE [3]: 11 u/L | PHOSPHORUS [3]: 10.1 mg/dL | POTASSIUM [3]: 5.78 MEQ/L | SODIUM [3]: 137.9 MEQ/L | TOTAL BILIRUBIN [3]: 0.13 mg/dL | TOTAL PROTEIN [3]: 5.57 G/DL
